In PubChem BioAssay (NCI):
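The compound was tested at five concentrations on cells cultured in 96-well plates, with a 48-hour exposure period. TGI: total growth inhibition.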

Assays:
Assay in all cases: DTP human tumour cell line panel, 48 h
[1] = tested on: IGROV1 ovarian
[2] = tested on: PC-3 prostate
[3] = tested on: COLO 205 colon
[4] = tested on: UACC-257 melanoma
[5] = tested on: NCI-H522 lung
[6] = tested on: OVCAR-4 ovarian
[7] = tested on: A549 NSCLC
[8] = tested on: HL-60(TB) leukemia
[9] = tested on: NCI/ADR-RES ovarian
[10] = tested on: OVCAR-3 ovarian
[11] = tested on: SK-MEL-2 melanoma
[12] = tested on: HT29 colon
[13] = tested on: CAKI-1 renal
[14] = tested on: TK-10 renal
[15] = tested on: SN12C renal
[16] = tested on: KM12 colon
[17] = tested on: NCI-H460 lung
[18] = tested on: MDA-MB-435
[19] = tested on: HOP-92 NSCLC
[20] = tested on: SNB-19 CNS
[21] = tested on: MOLT-4 leukemia
[22] = tested on: HCC-2998 colon
[23] = tested on: UO-31 renal
[24] = tested on: OVCAR-8 ovarian
[25] = tested on: 786-0 renal
[26] = tested on: ACHN renal
[27] = tested on: HCT-116 colon
[28] = tested on: SF-268 CNS
[29] = tested on: SF-539 CNS
[30] = tested on: DU-145 prostate
[31] = tested on: M14 melanoma
[32] = tested on: UACC-62 melanoma
[33] = tested on: T-47D breast
[34] = tested on: RXF 393 renal
[35] = tested on: NCI-H23 lung
[36] = tested on: NCI-H226 lung
[37] = tested on: A498 renal
[38] = tested on: K-562 leukemia
[39] = tested on: SF-295 CNS
[40] = tested on: HOP-62 NSCLC
[41] = tested on: BT-549 breast
[42] = tested on: HS 578T breast
[43] = tested on: SW-620 colon
[44] = tested on: SNB-75 CNS
[45] = tested on: RPMI-8226 leukemia
[46] = tested on: EKVX NSCLC
[47] = tested on: OVCAR-5 ovarian
[48] = tested on: SK-MEL-5 melanoma
[49] = tested on: MDA-MB-231 breast
[50] = tested on: CCRF-CEM leukemia
[51] = tested on: HCT-15 colon
[52] = tested on: U251 CNS
[53] = tested on: SK-MEL-28 melanoma
[54] = tested on: SR leukemia
[55] = tested on: LOX IMVI melanoma
[56] = tested on: SK-OV-3 ovarian
[57] = tested on: MCF7 breast
[58] = tested on: MALME-3M melanoma

In the case of `O=C(CC(=O)N1N=C(N2c3ccccc3Sc3ccccc32)CC1c1ccccc1)Nc1ccccc1Cl` (stereo not drawn), the TGI [1] is reported as > 100 µM, the TGI [2] is reported as > 100 µM and the TGI [3] is reported as > 100 µM. The TGI [4] was > 100 µM, the TGI [5] was > 100 µM and the TGI [6] was > 100 µM. The TGI [7] was > 100 µM, the TGI [8] was > 100 µM and the TGI [9] was > 100 µM. For the same compound, the TGI [10] was > 100 µM, the TGI [11] was > 100 µM and the TGI [12] was > 100 µM. For the same compound, the TGI [13] was > 100 µM, the TGI [14] was > 100 µM and the TGI [15] was > 100 µM. The TGI [16] was > 100 µM, the TGI [17] was > 100 µM and the TGI [18] was > 100 µM. The TGI [19] was > 100 µM, the TGI [20] was > 100 µM and the TGI [21] was > 100 µM. For the same compound, the TGI [22] was > 100 µM, the TGI [23] was > 100 µM and the TGI [24] was > 100 µM. The TGI [25] was > 100 µM, the TGI [26] was > 100 µM and the TGI [27] was > 100 µM. The TGI [28] was > 100 µM, the TGI [29] was > 100 µM and the TGI [30] was > 100 µM. The TGI [31] was > 100 µM, the TGI [32] was > 100 µM and the TGI [33] was > 100 µM. The TGI [34] was > 100 µM, the TGI [35] was > 100 µM and the TGI [36] was > 100 µM. The TGI [37] was > 100 µM, the TGI [38] was > 100 µM and the TGI [39] was > 100 µM. The TGI [40] was > 100 µM, the TGI [41] was > 100 µM and the TGI [42] was > 100 µM. The TGI [43] was > 100 µM, the TGI [44] was > 100 µM and the TGI [45] was > 100 µM. The TGI [46] was > 100 µM, the TGI [47] was > 100 µM and the TGI [48] was > 100 µM. The TGI [49] was > 100 µM, the TGI [50] was > 100 µM and the TGI [51] was > 100 µM. For the same compound, the TGI [52] was > 100 µM and the TGI [53] was > 100 µM.

Compound `c1ccc(Cc2cc(-c3ccccc3)n[nH]2)cc1` has a TGI [1] of 34 µM, a TGI [2] of 34.2 µM and a TGI [3] of 31.2 µM. For the same compound, the TGI [4] was 31.5 µM, the TGI [5] was 33.2 µM and the TGI [7] was 26 µM. It also gave a TGI [8] of 39.3 µM, a TGI [9] of 49.4 µM and a TGI [54] of 32.3 µM. It also gave a TGI [10] of 16.8 µM, a TGI [11] of 31.8 µM and a TGI [12] of 23.2 µM. For the same compound, the TGI [13] was 32.9 µM, the TGI [14] was 42.5 µM and the TGI [15] was 26.3 µM. The TGI [16] was 28.8 µM, the TGI [17] was 33.3 µM and the TGI [18] was 22.8 µM. The TGI [20] was 82.7 µM, the TGI [55] was 28.3 µM and the TGI [56] was > 100 µM. The TGI [21] was 23.1 µM, the TGI [23] was 49.8 µM and the TGI [24] was 30.9 µM. For the same compound, the TGI [25] was 43.4 µM, the TGI [26] was 36.4 µM and the TGI [27] was 88.9 µM. For the same compound, the TGI [28] was 57.6 µM, the TGI [30] was 26.2 µM and the TGI [31] was 80.1 µM. The TGI [32] was 27.4 µM, the TGI [33] was > 100 µM and the TGI [34] was 22.1 µM. For the same compound, the TGI [36] was 33.5 µM, the TGI [38] was 25.6 µM and the TGI [39] was 19.5 µM. The TGI [57] was 40.3 µM, the TGI [40] was 92.9 µM and the TGI [42] was 36.7 µM. The TGI [43] was 28.7 µM, the TGI [44] was 15.8 µM and the TGI [46] was 27.5 µM. The TGI [47] was 47.9 µM, the TGI [49] was 25.8 µM and the TGI [50] was 27 µM. The TGI [51] was 53 µM, the TGI [52] was 27.9 µM and the TGI [53] was 25.8 µM.

In the case of `CCCCCCN1C(=O)CC(=O)N(CCCCCC)S1(=O)=O`, the TGI [58] is reported as 72.8 µM, the TGI [1] is reported as 25.9 µM and the TGI [2] is reported as 60 µM. The TGI [3] was 34.6 µM, the TGI [4] was > 100 µM and the TGI [5] was 27.4 µM. For the same compound, the TGI [6] was 41 µM, the TGI [7] was > 100 µM and the TGI [8] was 48.9 µM. For the same compound, the TGI [9] was 49.5 µM, the TGI [54] was 61 µM and the TGI [10] was 52.1 µM. For the same compound, the TGI [11] was 28.5 µM, the TGI [12] was 46.8 µM and the TGI [13] was 50.7 µM. The TGI [14] was 41.6 µM, the TGI [15] was 37.1 µM and the TGI [16] was > 100 µM. For the same compound, the TGI [17] was > 100 µM, the TGI [18] was 53.5 µM and the TGI [19] was 25.6 µM. For the same compound, the TGI [20] was > 100 µM, the TGI [55] was 36 µM and the TGI [56] was 51.5 µM. For the same compound, the TGI [21] was 51.6 µM, the TGI [23] was 3.46 µM and the TGI [25] was 35.8 µM. For the same compound, the TGI [27] was > 100 µM, the TGI [28] was 36.9 µM and the TGI [29] was 41.9 µM. For the same compound, the TGI [30] was > 100 µM, the TGI [31] was > 100 µM and the TGI [32] was 34.3 µM. For the same compound, the TGI [33] was > 100 µM, the TGI [34] was 34.1 µM and the TGI [35] was 75.2 µM. For the same compound, the TGI [36] was > 100 µM, the TGI [37] was 27.8 µM and the TGI [38] was > 100 µM. For the same compound, the TGI [39] was 35.9 µM, the TGI [57] was > 100 µM and the TGI [40] was 35.9 µM. The TGI [42] was 45.9 µM, the TGI [43] was 41.9 µM and the TGI [44] was 32.7 µM. The TGI [45] was 47.2 µM, the TGI [46] was 41 µM and the TGI [47] was 41.1 µM. It also gave a TGI [48] of 44.2 µM, a TGI [49] of 33.2 µM and a TGI [50] of 40.9 µM. For the same compound, the TGI [52] was 33.1 µM.
